Legend:
[1] = biological target: T1, human alkaline ceramidase (aPHC) (Homo sapiens, UniProt Q9NUN7); details: in vitro and in cells; cited from earlier work
T1 construct: host or cells: yeast mutant strain (as cited)
T1 sequence (Q9NUN7 1-267): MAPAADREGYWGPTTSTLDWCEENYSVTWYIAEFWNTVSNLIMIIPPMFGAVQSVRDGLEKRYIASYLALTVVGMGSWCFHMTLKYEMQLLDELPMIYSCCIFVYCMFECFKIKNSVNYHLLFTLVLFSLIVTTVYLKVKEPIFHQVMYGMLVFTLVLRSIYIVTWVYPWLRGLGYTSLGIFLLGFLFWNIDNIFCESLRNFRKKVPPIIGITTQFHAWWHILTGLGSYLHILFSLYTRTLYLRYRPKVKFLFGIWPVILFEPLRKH

[2] = biological target: T2, ceramidase originating from mitochondria of rat brain (Rattus norvegicus, UniProt Q91XT9); details: cited from earlier work
T2 construct: host or cells: rat brain mitochondria
T2 sequence (Q91XT9 whole entry): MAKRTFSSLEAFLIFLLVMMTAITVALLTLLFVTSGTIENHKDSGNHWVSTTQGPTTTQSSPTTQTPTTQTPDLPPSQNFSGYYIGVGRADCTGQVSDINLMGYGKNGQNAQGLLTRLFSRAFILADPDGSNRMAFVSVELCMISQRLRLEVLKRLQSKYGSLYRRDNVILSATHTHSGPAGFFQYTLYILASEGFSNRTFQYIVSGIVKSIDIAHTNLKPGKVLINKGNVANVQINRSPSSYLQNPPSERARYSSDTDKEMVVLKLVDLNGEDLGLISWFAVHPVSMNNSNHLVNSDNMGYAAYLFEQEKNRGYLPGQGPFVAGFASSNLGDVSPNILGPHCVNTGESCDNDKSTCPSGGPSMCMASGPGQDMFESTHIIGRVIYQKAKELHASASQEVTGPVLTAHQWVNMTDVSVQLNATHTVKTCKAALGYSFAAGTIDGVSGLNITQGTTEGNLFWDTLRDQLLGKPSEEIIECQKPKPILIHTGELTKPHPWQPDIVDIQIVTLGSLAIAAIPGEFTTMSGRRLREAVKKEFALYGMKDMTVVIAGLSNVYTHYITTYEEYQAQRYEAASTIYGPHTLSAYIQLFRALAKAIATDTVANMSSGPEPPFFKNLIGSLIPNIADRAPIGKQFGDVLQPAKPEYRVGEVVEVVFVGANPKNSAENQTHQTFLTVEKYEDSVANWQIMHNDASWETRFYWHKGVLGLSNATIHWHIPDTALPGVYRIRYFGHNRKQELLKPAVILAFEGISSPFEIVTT

[3] = tested on: ceramidase originating from guinea pig epidermis; details: in vitro; cited from earlier work
[4] = biological target: recombinant ceramidase from Pseudomonas aeruginosa PA01 (Pseudomonas aeruginosa, UniProt Q9I596); test: Inhibition of recombinant Pseudomonas aeruginosa PA01 ceramidase, quenched fluorescent ceramide analog substrate; type: biochemical; details: for capability of inhibiting Pseudomonas aeruginosa ceramidase: known human ceramidase inhibitors, various concentrations, assay buffer containing 20 μM of substrate; for ceramidase inhibition ability, comparison in words: comparison among examples 1-9
Chain of recombinant ceramidase from Pseudomonas aeruginosa PA01 (Q9I596 25-670): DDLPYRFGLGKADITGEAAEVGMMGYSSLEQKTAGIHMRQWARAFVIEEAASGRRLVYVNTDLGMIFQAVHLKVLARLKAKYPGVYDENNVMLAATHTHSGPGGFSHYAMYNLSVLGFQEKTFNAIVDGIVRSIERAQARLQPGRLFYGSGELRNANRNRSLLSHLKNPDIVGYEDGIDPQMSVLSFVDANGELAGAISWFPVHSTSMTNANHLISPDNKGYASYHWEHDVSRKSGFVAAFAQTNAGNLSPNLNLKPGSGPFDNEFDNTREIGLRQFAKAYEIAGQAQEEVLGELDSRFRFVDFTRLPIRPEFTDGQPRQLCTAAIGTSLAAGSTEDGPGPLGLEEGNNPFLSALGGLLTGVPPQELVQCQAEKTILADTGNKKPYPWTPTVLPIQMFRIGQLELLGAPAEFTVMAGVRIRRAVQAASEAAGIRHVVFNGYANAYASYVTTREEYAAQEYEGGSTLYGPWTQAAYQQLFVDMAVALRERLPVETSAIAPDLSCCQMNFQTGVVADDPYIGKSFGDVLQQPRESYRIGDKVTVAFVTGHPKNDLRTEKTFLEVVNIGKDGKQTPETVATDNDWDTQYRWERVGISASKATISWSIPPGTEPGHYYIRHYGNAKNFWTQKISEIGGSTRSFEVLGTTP
Method: The effect of various active compounds on the enzymatic activity of recombinant ceramidase from Pseudomonas aeruginosa PA01 was tested.
The assays were performed at 25° C., with magnetic stirring, using Photo Technology International fluorimeter equipped with a LPS 220 Lamp Power Supply, a 810 Photomultiplier Detector System, a MD 5020 Motor Driver, and a Dell Dimensions M166a computer with FELIX® software. Excitation was done at 346 nm (±2 nm) and the emission was measured at 378 nm (±2 nm).The assay buffer consisted of 50 mM Tris/HCl, 4 mM CaCl2, 0.1% w/v Triton X-100, pH 8.5.
The active compounds were dissolved in DMF (dimethylformamide) to a concentration of 4 mM. Of these solutions, 250 μliter was added to 50 milliliter assay buffer under vortex, yielding 20 μM lipid solutions.
To 1 mL of the lipid solution in a cuvet, 5 μL of quenched fluorescent ceramide analog as a substrate was added (end concentration 2 μM) and the system was allowed to equilibrate for 5 minutes. Then 5 μL of recombinant ceramidase was added (end concentration 4.3 nM). The reaction was allowed to proceed for 20 minutes. The slope at 378 nm was used to determine the reaction rate.
Control experiments were done in the absence of sphingolipids, with corresponding amounts of DMF (0.5% v/v for the 20 μM samples). The reaction rate of the controls was set at 100%. The percentages in the table are given as % of inhibition (control value—reaction rate of the sample).
The potential of several known human ceramidase inhibiting compounds of inhibiting Pseudomonas aeruginosa PA01 ceramidase was tested at various concentrations, in the assay buffer containing 20 μM of substrate.
The potential of several ceramide and sphingoid bases of inhibiting Pseudomonas aeruginosa PA01 ceramidase was tested at a pH of 8.5, using respectively, 2 μM and 20 μM of ceramidase substrate, 1.6 mM Triton X-100 and 4 mM of CaCl2.

[5] = 20 μM active compound, pH 8.5, 25° C., 4 mM CaCl2, Triton X-100, control rate = 100%

| SMILES | % of inhibition [4, 5] | capability of inhibiting Pseudomonas aeruginosa ceramidase [4] | other results |
| --- | --- | --- | --- |
| CCCCCCCCCCCCC/C=C/[C@@H](O)[C@@H](N)CO [sphingosine] | – | – | inhibition of human alkaline ceramidase [1]: inhibited by sphingosine; inhibition of ceramidase [2]: capable of inhibiting ceramidase; inhibition of ceramidase [3]: inhibiting ceramidase |
| CCCCCCCCCCCCCCC[C@H](O)[C@H](N)CO [D/L sphinganine] | 83% | – | – |
| CCCCCCCCCCCCCCC(OC(C)=O)C(OC(C)=O)C(COC(C)=O)NC(C)=O (stereo not drawn) [TAPS, tetraacetyl-phytosphingosine] | 22% | – | – |
| CCCCCCCCCCCCCC(=O)N[C@H](C)[C@@H](O)c1ccccc1 [D-erytro-MAPP, (1S,2R)-D-erythro-2-(N-myristoylamino)-1-phenyl-1-propanol, reference compound] | – | None of these compounds was found capable of inhibiting | – |
| CCCCCCCCCCCCCCCCC(O)C(=O)N[C@@H](CO)[C@H](O)[C@H](O)CCCCCCCCCCCCCC (stereo partly drawn) [Ceramide VI] | 11% | – | – |
| CCCCCCCCCCCCCC[C@@H](O)[C@@H](O)[C@H](CO)NC(C)=O [N—acetyl—phytosphingosine] | 9% | – | – |
| CCCCCCCCCCCCCC(=O)N[C@@H](C)[C@H](O)c1ccccc1 [L-erythro-MAPP, reference compound] | – | None of these compounds was found capable of inhibiting | – |
| C[C@H](N)[C@H](O)c1ccccc1 [L(−)-norephenidrin, reference compound] | – | None of these compounds was found capable of inhibiting | – |
| CCCCCCCCCCCCC/C=C/[C@H](O)[C@H](N)CO [L—erythro—sphingosine] | 20% | – | – |
| CCCCCCCCCCCCCC[C@@H](O)[C@@H](O)[C@@H](N)CO [Phytosphingosine] | – | – | inhibition at 2 µM ([4]; pH 8.5, 2 μM active compound, pH 8.5, 25° C., 4 mM CaCl2, Triton X-100, control rate = 100%): 7.5%; inhibition at 20 µM ([4]; pH 8.5, read-out: % of inhibition, 20 μM active compound, pH 8.5, 25° C., 4 mM CaCl2, Triton X-100, control rate = 100%): 60% |
| CCCCCCCCCCCCCC[C@@H](O)[C@@H](O)[C@H](CO)NC(C)=O [MAPS, N-monoacetyl phytosphingosine] | 35% | – | – |
| CCCCCCCCCCCCC/C=C/[C@@H](O)[C@@H](N)CO [D—erythro—sphingosine] | 97% | – | ceramidase inhibition ability, comparison in words [4]: highest ceramidase inhibition ability |
| CCCCCCCC/C=C\CCCCCCCC(=O)NCCO [N-oleoylethanolamine, reference compound] | – | None of these compounds was found capable of inhibiting | – |
| C[C@@H](N)[C@@H](O)c1ccccc1 [D(+)-norephenidrin, reference compound] | – | None of these compounds was found capable of inhibiting | – |
| CCCCCCCCCCCCCC[C@@H](O)[C@@H](O)[C@@H](N)CO.Cl [Phytosphingosine.HCl] | 67% | – | % of inhibition ([4]; 2 μM active compound, pH 8.5, 25° C., 4 mM CaCl2, Triton X-100, control rate = 100%): 15%; ceramidase inhibition ability, comparison in words [4]: better ceramidase inhibiting effect than phytosphingosine |

From US20030064936A1 (priority 2001, published 2003)
